Assay results reported in PubChem BioAssay AID330 (DTP/NCI, 2004).
Several values for one entry are separate records, joined by “and”; a condition that tells them apart may be missing. Equal values may be shown once. Toxic doses and inconclusive results are not listed.

Tested on: P388 leukemia ip, CD2F1 mice, survival T/C
Test: NCI In Vivo Anticancer Drug Screen. Data for tumor model P388 Leukemia (intraperitoneal) in CD2F1 (CDF1) mice
Conditions: endpoint: median survival time, higher = longer survival
Procedure, shortened: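 Mice carrying the transplanted tumor received test compound or vehicle. Survival was recorded in each group, and the value is the treated-group measurement divided by that of the vehicle-treated control group.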

[1] = dose: 12.5 mg/kg/injection, schedule: Q01DX009 (ip), vehicle: distilled water + Tween-80
[2] = dose: 25.0 mg/kg/injection, schedule: Q01DX009 (ip), vehicle: distilled water + Tween-80
[3] = dose: 50.0 mg/kg/injection, schedule: Q01DX009 (ip), vehicle: distilled water + Tween-80
[4] = dose: 100.0 mg/kg/injection, schedule: Q01DX009 (ip), vehicle: distilled water + Tween-80
[5] = dose: 60.0 mg/kg/injection, schedule: Q01DX005 (ip), vehicle: saline with Tween-80
[6] = dose: 120.0 mg/kg/injection, schedule: Q01DX005 (ip), vehicle: saline with Tween-80
[7] = dose: 240.0 mg/kg/injection, schedule: Q01DX005 (ip), vehicle: saline with Tween-80
[8] = dose: 50.0 mg/kg/injection, schedule: Q01DX009 (ip), vehicle: saline with Tween-80
[9] = dose: 100.0 mg/kg/injection, schedule: Q01DX009 (ip), vehicle: saline with Tween-80
[10] = dose: 12.5 mg/kg/injection, schedule: Q01DX009 (ip), vehicle: Klucel (hydroxypropylcellulose) (HPC)
[11] = dose: 25.0 mg/kg/injection, schedule: Q01DX009 (ip), vehicle: Klucel (hydroxypropylcellulose) (HPC)
[12] = dose: 50.0 mg/kg/injection, schedule: Q01DX009 (ip), vehicle: Klucel (hydroxypropylcellulose) (HPC)
[13] = dose: 50.0 mg/kg/injection, schedule: Q01DX009 (ip), vehicle: saline
[14] = dose: 100.0 mg/kg/injection, schedule: Q01DX009 (ip), vehicle: saline
[15] = dose: 200.0 mg/kg/injection, schedule: Q01DX009 (ip), vehicle: saline
[16] = dose: 200.0 mg/kg/injection, schedule: Q01DX009 (ip), vehicle: saline with Tween-80

COCCN=NNc1ccc(C#N)cc1
T/C [1]: 100 % of control
T/C [2]: 105 % of control
T/C [3]: 101 % of control
T/C [4]: 97 % of control

Nc1ccc(Cn2ccnn2)cc1
T/C [5]: 100 % of control
T/C [6]: 95 % of control
T/C [7]: 101 % of control

CCCCNCCCNCCCNC(=O)c1csc(-c2csc(CCNC(=O)C(NC(=O)C(C)C(O)C(C)NC(=O)C(NC(=O)c3nc(C(CC(N)=O)NCC(N)C(N)=O)nc(N)c3C)C(OC3OC(CO)C(O)C(O)C3OC3OC(CO)C(O)C(OC(N)=O)C3O)c3cnc[nH]3)C(C)O)n2)n1 (stereo not given)
T/C (dose: 0.62 mg/kg/injection, schedule: Q01DX009 (ip), vehicle: water): 104 % of control and 105 % of control
T/C (dose: 1.25 mg/kg/injection, schedule: Q01DX009 (ip), vehicle: water): 104 % of control and 105 % of control
T/C (dose: 2.5 mg/kg/injection, schedule: Q01DX009 (ip), vehicle: water): 104 % of control and 110 % of control and 117 % of control
T/C (dose: 5.0 mg/kg/injection, schedule: Q01DX009 (ip), vehicle: water): 108 % of control and 117 % of control and 120 % of control
T/C (dose: 10.0 mg/kg/injection, schedule: Q01DX009 (ip), vehicle: water): 104 % of control
T/C (dose: 20.0 mg/kg/injection, schedule: Q01DX009 (ip), vehicle: water): 105 % of control
T/C (dose: 40.0 mg/kg/injection, schedule: Q01DX009 (ip), vehicle: water): 89 % of control

CC1(C)CCC2(C(=O)O)CCC3(C)C(=CCC4C5(C)CCC(OC6OC(CO)C(O)C(OC7OC(CO)C(O)C(O)C7O)C6OC6OC(CO)C(O)C(O)C6O)C(C)(C)C5CCC43C)C2C1 (stereo not given)
T/C (dose: 3.75 mg/kg/injection, schedule: Q01DX005 (ip), vehicle: Klucel (hydroxypropylcellulose) (HPC)): 102 % of control
T/C (dose: 7.5 mg/kg/injection, schedule: Q01DX005 (ip), vehicle: Klucel (hydroxypropylcellulose) (HPC)): 100 % of control
T/C (dose: 15.0 mg/kg/injection, schedule: Q01DX005 (ip), vehicle: Klucel (hydroxypropylcellulose) (HPC)): 88 % of control
T/C (dose: 30.0 mg/kg/injection, schedule: Q01DX005 (ip), vehicle: Klucel (hydroxypropylcellulose) (HPC)): 100 % of control

CNC(=O)OCc1c(COC(=O)NC)c2n(c1C)-c1ccccc1CCC2
T/C (dose: 2.5 mg/kg/injection, schedule: Q01DX005 (ip), vehicle: Klucel (hydroxypropylcellulose) (HPC)): 154 % of control
T/C (dose: 10.0 mg/kg/injection, schedule: Q01DX005 (ip), vehicle: Klucel (hydroxypropylcellulose) (HPC)): 152 % of control

COc1ccc(C(O)c2cnc(C)n2Cc2ccccc2)cc1 (stereo not given)
T/C [5]: 99 % of control
T/C [6]: 100 % of control
T/C [7]: 94 % of control

COc1ccc(S(=O)(=O)F)cc1NC(=O)Oc1ccccc1
T/C [5]: 105 % of control
T/C [6]: 113 % of control
T/C [7]: 111 % of control

O=S(=O)(O)O.[NH-]CC([NH-])c1ccccc1.[Pt+2] (stereo not given)
T/C (dose: 6.25 mg/kg/injection, schedule: Q04DX002 (ip), vehicle: saline with Tween-80): 184 % of control
T/C (dose: 12.5 mg/kg/injection, schedule: Q04DX002 (ip), vehicle: saline with Tween-80): 88 % of control

CCCCP(=O)(CCCC)CCCC.CCCCP(=O)(CCCC)CCCC.CCCCP(=O)(CCCC)CCCC.CCCCP(=O)(CCCC)CCCC.[Mn+2].[O-][Cl+3]([O-])([O-])O
T/C (dose: 50.0 mg/kg/injection, schedule: Q01DX009 (ip), vehicle: saline + Tween-80 + alcohol): 101 % of control
T/C [8]: 104 % of control
T/C (dose: 100.0 mg/kg/injection, schedule: Q01DX009 (ip), vehicle: saline + Tween-80 + alcohol): 116 % of control
T/C [9]: 119 % of control
T/C (dose: 200.0 mg/kg/injection, schedule: Q01DX009 (ip), vehicle: saline + Tween-80 + alcohol): 122 % of control

CSc1nc2c3ccccc3ccn2c(=N)c1C#N
T/C (dose: 25.0 mg/kg/injection, schedule: Q04DX002 (ip), vehicle: saline): 104 % of control
T/C (dose: 50.0 mg/kg/injection, schedule: Q04DX002 (ip), vehicle: saline): 109 % of control

Nc1nc(Cl)cc(Cl)n1
T/C [10]: 94 % of control
T/C [11]: 107 % of control
T/C [12]: 108 % of control
T/C (dose: 100.0 mg/kg/injection, schedule: Q01DX009 (ip), vehicle: Klucel (hydroxypropylcellulose) (HPC)): 99 % of control

CC(=O)NCc1cc(C)c(CC#N)cc1CC#N
T/C (dose: 6.25 mg/kg/injection, schedule: Q01DX009 (ip), vehicle: distilled water + Tween-80): 100 % of control
T/C [1]: 89 % of control and 91 % of control
T/C [2]: 103 % of control
T/C [3]: 94 % of control
T/C [4]: 94 % of control

CC(=O)n1c(N)nc2ccccc21
T/C [13]: 104 % of control
T/C [14]: 104 % of control
T/C [15]: 90 % of control

CN(C)CCSc1c2ccccc2nc2ccccc12
T/C (dose: 12.5 mg/kg/injection, schedule: Q01DX005 (ip), vehicle: Klucel (hydroxypropylcellulose) (HPC)): 110 % of control
T/C (dose: 25.0 mg/kg/injection, schedule: Q01DX005 (ip), vehicle: Klucel (hydroxypropylcellulose) (HPC)): 110 % of control and 119 % of control
T/C (dose: 50.0 mg/kg/injection, schedule: Q01DX005 (ip), vehicle: Klucel (hydroxypropylcellulose) (HPC)): 100 % of control (2×) and 101 % of control

COc1ccc2c(c1)CCC1C2CCC2(C)C1CCC2(O)CCN=[N+]=[N-] (stereo not given)
T/C [8]: 104 % of control
T/C [9]: 101 % of control
T/C [16]: 101 % of control

CCN(CC)C/C(C)=C(/c1ccccc1)c1ccccc1S(N)(=O)=O
T/C (dose: 100.0 mg/kg/injection, schedule: Q01DX001 (ip), vehicle: Klucel (hydroxypropylcellulose) (HPC)): 116 % of control
T/C (dose: 200.0 mg/kg/injection, schedule: Q01DX001 (ip), vehicle: Klucel (hydroxypropylcellulose) (HPC)): 111 % of control

CCN(CC)CCCNc1cnc2ccc(OC)cc2n1
T/C (dose: 25.0 mg/kg/injection, schedule: Q04DX003 (ip), vehicle: saline): 94 % of control
T/C (dose: 50.0 mg/kg/injection, schedule: Q04DX003 (ip), vehicle: saline): 91 % of control
T/C (dose: 100.0 mg/kg/injection, schedule: Q04DX003 (ip), vehicle: saline): 103 % of control

N#CCCn1nnc2ccccc21
T/C (dose: 6.25 mg/kg/injection, schedule: Q01DX009 (ip), vehicle: Klucel (hydroxypropylcellulose) (HPC)): 91 % of control
T/C [10]: 94 % of control
T/C [11]: 95 % of control
T/C [12]: 88 % of control

C[Si](C)(C)O/C=C1/CCOC1=O
T/C [13]: 100 % of control and 87 % of control
T/C [14]: 98 % of control and 104 % of control
T/C [15]: 120 % of control
T/C (dose: 300.0 mg/kg/injection, schedule: Q01DX009 (ip), vehicle: saline): 114 % of control

Cc1ccc(C2N(CCN3C(=O)CS(=O)(=O)C3c3ccc(C)s3)C(=O)CS2(=O)=O)s1 (stereo not given)
T/C (dose: 100.0 mg/kg/injection, schedule: Q01DX001 (ip), vehicle: saline with Tween-80): 101 % of control
T/C (dose: 100.0 mg/kg/injection, schedule: Q04DX002 (ip), vehicle: saline with Tween-80): 97 % of control
T/C (dose: 200.0 mg/kg/injection, schedule: Q01DX001 (ip), vehicle: saline with Tween-80): 94 % of control
T/C (dose: 200.0 mg/kg/injection, schedule: Q04DX002 (ip), vehicle: saline with Tween-80): 87 % of control
T/C (dose: 400.0 mg/kg/injection, schedule: Q01DX001 (ip), vehicle: saline with Tween-80): 91 % of control

COc1cc(CC2C(=O)OCC2Cc2cc(OC)c(O)c(C(CO)C(O)c3ccc(O)c(OC)c3)c2)ccc1O (stereo not given)
T/C (dose: 5.0 mg/kg/injection, schedule: Q01DX009 (ip), vehicle: saline): 96 % of control
T/C (dose: 10.0 mg/kg/injection, schedule: Q01DX009 (ip), vehicle: saline): 107 % of control
T/C (dose: 20.0 mg/kg/injection, schedule: Q01DX009 (ip), vehicle: saline): 105 % of control
T/C (dose: 40.0 mg/kg/injection, schedule: Q01DX009 (ip), vehicle: saline): 102 % of control

CC(C)[C@H]1OC(=O)C=C2[C@@]13O[C@@H]3[C@H]1OC(=O)[C@]3(C)C1[C@]2(C)CC[C@@H]3O (stereo not given in full)
T/C (dose: 1.0 mg/kg/injection, schedule: Q01DX009 (ip), vehicle: saline with Tween-80): 101 % of control
T/C (dose: 40.0 mg/kg/injection, schedule: Q01DX009 (ip), vehicle: saline with Tween-80): 105 % of control

CCOC(=O)c1[nH]c2ccc(OC)c3c2c1CCC3=O
T/C [8]: 92 % of control
T/C [9]: 92 % of control
T/C [16]: 92 % of control
